Assay results published in patent US9133242B2, “Peptide for use as a medicament, in particular for the treatment of cancer” (priority 2010, dated 2015).
Entries after “also recorded” stand apart in the source; their conditions may differ. Where no end group is shown, it is not given here.

How the values were obtained:
Format in all cases: cell-based
[1] = test system: TX 2 cells (line derived from breast tumors which no longer respond to Taxol); assay: Growth inhibition of Taxol-resistant TX 2 cells; details: after 24 H of culture
Protocol: (§1) The studies were carried out on two cell lines, TX 1 and TX 2, derived from breast tumors which no longer respond to Taxol. […] 1 and the peptide of SEQ. 7. […]

[2] = test system: TX 1 cells (line derived from breast tumors which no longer respond to Taxol); assay: Growth inhibition of Taxol-resistant TX 1 cells; details: after 24 H of culture
Protocol: as §1

A 549 (Human lung tumor) = assay: MTT cell viability, A549 lung cancer line; details: variants tested on the A549 line; for evaluation of the activity (in words): compared with peptide SEQ. 1
Protocol: Approximately 10 000 cells were seeded, in a volume of 0.2 mL per well, into 96-well microplates for 24 hours before treatment with the peptide of SEQ. 1. The cells were incubated for 48 to 72 hours at 37° C. in a CO2 incubator in the presence or absence of the peptide of SEQ. 1 at various concentrations.
Following this incubation, MTT reagent or 3-(4,5-dimethyl[…])-2,5-diphenyltetrazolium bromide (0.5 mg/ml in a volume of 0.1 ml) was added to each well and incubated for 2 hours at 37° C.
The tetrazolium ring contained by the MTT is then reduced by the succinate dehydrogenase of the live cells, to give formazan. Next, the supernatant was removed and 0.1 ml of lysis buffer (isopropanol containing 10% of triton×100 and 10% of 1N HCl) was added in order to dissolve the bluish violet formazan precipitate formed. After a few minutes, the absorbance was determined at ambient temperature using a microplate reader at a test wavelength of 562 nm. Wells not comprising peptide of SEQ. 1 were used so as to verify the viability of control cells. IC 50 (concentration of peptide of SEQ. 1 causing 50% cytotoxicity on these cell lines) values for each cell variety were evaluated by means of the ratio of the absorbance of the treated cells to the absorbance of the control cells. […]

[3] = test system: FIBRO 1 and FIBRO 2 nontumorigenic fibroblast cells; assay: Immunofluorescent labeling of microtubule network, healthy fibroblasts; details: human fibroblasts FIBRO 1 and FIBRO 2, 15 μM
Protocol: FIG. 4 represents photos of non-tumor cell lines, FIBRO 1 and FIBRO 2 (fibroblast cells), treated with the peptide of SEQ. 1 at 15 μM and not treated with this peptide (control);
The specific activity of the peptide of SEQ. Two varieties of nontumorigenic fibroblast cells: FIBRO 1 and FIBRO 2, were brought into contact with the peptide of SEQ. 1 in order to see whether the microtubule network of healthy cells was also disrupted by the peptide. […] 1 (no modification of polymerized tubulin density), at the very least at concentrations of peptide of SEQ. 1 used for the cancer cells (15 μM). This observation represents an important advance of the present invention.

| Substance | evaluation of the activity (in words) (A 549 (Human lung tumor)) | also measured |
| --- | --- | --- |
| INWKKIAKKVAGML-NH2 [SEQ. 7, INWKKIAKKVAGML-NH2] | absolutely equivalent to the peptide SEQ. 1; also recorded: Very good activity | growth inhibition [1]: significant; growth inhibition [2]: significant |
| INWLAIAAKVAGML [SEQ. 4, INWLAIAAKVAGML-NH2] | absolutely equivalent to the peptide SEQ. 1; also recorded: Very good activity |  |
| INWLAIAKKVAGML [SEQ. 3, INWLAIAKKVAGML-NH2] | absolutely equivalent to the peptide SEQ. 1; also recorded: Very good activity |  |
| INWLKIAKKVAG-NH2 [SEQ. 19, INWLKIAKKVAG-NH2] | Medium activity |  |
| INWLKIAKKVAGM-NH2 [SEQ. 18, INWLKIAKKVAGM-NH2] | Medium activity |  |
| INWLKIAKKVAGML [SEQ. 2] | Medium activity | IC50 (A 549 (Human lung tumor)): ~15 µM |
| INWLKIAKKVAGML-NH2 [SEQ. 1, INWLKIAKKVAGML-NH2] |  | modification of polymerized tubulin density in healthy cells [3]: do not respond at all |
| INWLKIAKKVKGML [SEQ. 9, INWLKIAKKVKGML-NH2] | absolutely equivalent to the peptide SEQ. 1; also recorded: Very good activity |  |
